Tests used:
[1] = test system: anesthetized dogs; test: Hemodynamic effects of 15 minute infusions (10, 30, 90 mg/kg) with or without diphenhydramine pretreatment; assay type: in vivo, dog; conditions: given prior to IV sulcardine sulfate
Description: Dogs were administered morphine (2 mg/kg subcutaneously) approximately 10-19 minutes prior to administration of anesthesia. Dogs were anesthetized with 1% α-chloralose (100 mg/kg intravenous), followed by a constant infusion of α-chloralose (35-75 mg/kg/hr, IV). Two healthy female dogs were administered escalating doses of sulcardine sulfate intravenously over 15 minutes in an acetate buffer system at dose levels of 10, 30 and 90 mg/kg with dose administrations separated by 60 minutes. Another set of two dogs received test article after pre-treatment with diphenhydramine (1 mg/kg administered 30 minutes prior to start of test article infusion). Following drug administration, dogs were evaluated for ventricular, pulmonary and peripheral hemodynamic changes using Swanz Ganz and femoral catheters as well as by monitoring of blood oxygen saturation, test article blood level, body temperature, blood biochemistry, hematology, ECG, and histamine levels.

[2] = test system: conscious beagle dogs; test: 10 minute intravenous infusion, increasing doses: mean blood pressure, heart rate, plasma histamine (ELISA); assay type: in vivo, dog; conditions: pretreatment before i.v. sulcardine sulfate
[3] = test system: post-MI canine; test: Defibrillation threshold / failure risk in post-MI canine model; assay type: in vivo

Row | Defibrillation failure risk [3] | Structure (SMILES) | Effect of anti-histamine on cutaneous manifestations of histamine release (flushing and facial and ear edema) [1] | Effect of anti-histamine on hypotension seen on dosing [1] | Effect of pretreatment on histamine-mediated events of sulcardine sulfate [2]
1 | – | CN(C)CCOC(c1ccccc1)c1ccccc1 [diphenhydramine, reference compound] | blunting some of the cutaneous manifestations of histamine release | only partially reversed the hypotension | prevented the histamine-mediated events
2 | increase defibrillation failure risk | O=C(NCC1CCCCN1)c1cc(OCC(F)(F)F)ccc1OCC(F)(F)F (centres unmarked) [flecanide] | – | – | –
3 | – | N#Cc1cc(NC(=O)C(=O)O)c(Cl)c(NC(=O)C(=O)O)c1 [lodoxamide] | – | – | prevented the histamine-mediated events

— patent publication US8637566B2, “Slow infusion of sulcardine and its salts” (HUYA Bioscience International LLC, priority 2009, dated 2014)
